Source: PubChem BioAssay AID1963973 (Molecular Pharmacology Branch, DTP, NCI, 2024)

Test system: 883617-216-R-J1-PDC tumor spheroids, viability
Assay: Anticancer human tumor 883617-216-R-J1-PDC patient-derived bladder carcinoma cell line growth inhibition [PI3K]
Details: spheroids with HUVEC and MSC; for IC50: curve of first compound; for viability, T/C: stronger effect = lower value
In short: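 Combination activity was assessed by viability in multicellular tumor spheroids carrying HUVEC and MSC components. Agents were tested with PI3K inhibitors from a Cmax-based top dose (or 10 microM) downward in half-log increments.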

[1] = second compound 0.0316 µM, first compound 0.00316 µM
[2] = second compound 0.0316 µM, first compound 0.01 µM
[3] = second compound 0.0316 µM, first compound 0.0316 µM
[4] = second compound 0.0316 µM, first compound 0.1 µM
[5] = second compound 0.1 µM, first compound 0.00316 µM
[6] = second compound 0.1 µM, first compound 0.01 µM
[7] = second compound 0.1 µM, first compound 0.0316 µM
[8] = second compound 0.1 µM, first compound 0.1 µM
[9] = second compound 0.316 µM, first compound 0.00316 µM
[10] = second compound 0.316 µM, first compound 0.01 µM
[11] = second compound 0.316 µM, first compound 0.0316 µM
[12] = second compound 0.316 µM, first compound 0.1 µM
[13] = second compound 1 µM, first compound 0.00316 µM
[14] = second compound 1 µM, first compound 0.01 µM
[15] = second compound 1 µM, first compound 0.0316 µM
[16] = second compound 1 µM, first compound 0.1 µM
[17] = second compound 3.16 µM, first compound 0.00316 µM
[18] = second compound 3.16 µM, first compound 0.01 µM
[19] = second compound 3.16 µM, first compound 0.0316 µM
[20] = second compound 3.16 µM, first compound 0.1 µM
[21] = second compound 10 µM, first compound 0.00316 µM
[22] = second compound 10 µM, first compound 0.01 µM
[23] = second compound 10 µM, first compound 0.0316 µM
[24] = second compound 10 µM, first compound 0.1 µM
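Note: spheroids exposed to agents for 7 days before the viability read.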

Cn1ncnc1[C@H]1c2n[nH]c(=O)c3cc(F)cc(c23)N[C@@H]1c1ccc(F)cc1 + Cc1nc(NC(=O)N2CCCC2C(N)=O)sc1-c1ccnc(C(C)(C)C(F)(F)F)c1 showed an IC50 (second compound 0.0316 µM) greater than 100 nM, an IC50 (second compound 0.1 µM) greater than 100 nM and an IC50 (second compound 0.316 µM) of less than 0.316 nM. The IC50 (second compound 1 µM) was less than 0.316 nM, the IC50 (second compound 3.16 µM) was less than 0.316 nM and the IC50 (second compound 10 µM) was less than 0.316 nM. It also gave a viability, T/C (second compound 0.0316 µM, first compound 0.000316 µM) of 88.1%, a viability, T/C (second compound 0.0316 µM, first compound 0.001 µM) of 74% and a viability, T/C [1] of 68.2%. It also gave a viability, T/C [2] of 68.5%, a viability, T/C [3] of 64.8% and a viability, T/C [4] of 52.9%. It also gave a viability, T/C (second compound 0.1 µM, first compound 0.000316 µM) of 66.9%, a viability, T/C (second compound 0.1 µM, first compound 0.001 µM) of 67.4% and a viability, T/C [5] of 65.7%. It also gave a viability, T/C [6] of 52.4%, a viability, T/C [7] of 54.9% and a viability, T/C [8] of 52%. For the same compound, the viability, T/C (second compound 0.316 µM, first compound 0.000316 µM) was 43.5%, the viability, T/C (second compound 0.316 µM, first compound 0.001 µM) was 47.3% and the viability, T/C [9] was 49.5%. For the same compound, the viability, T/C [10] was 45.5%, the viability, T/C [11] was 35.4% and the viability, T/C [12] was 34.9%. It also gave a viability, T/C (second compound 1 µM, first compound 0.000316 µM) of 27.5%, a viability, T/C (second compound 1 µM, first compound 0.001 µM) of 31.6% and a viability, T/C [13] of 23.1%. The viability, T/C [14] was 26.2%, the viability, T/C [15] was 27.2% and the viability, T/C [16] was 21.3%. For the same compound, the viability, T/C (second compound 3.16 µM, first compound 0.000316 µM) was 16%, the viability, T/C (second compound 3.16 µM, first compound 0.001 µM) was 16.1% and the viability, T/C [17] was 12%. It also gave a viability, T/C [18] of 13%, a viability, T/C [19] of 14.1% and a viability, T/C [20] of 12%. The viability, T/C (second compound 10 µM, first compound 0.000316 µM) was 7.59%, the viability, T/C (second compound 10 µM, first compound 0.001 µM) was 8.2% and the viability, T/C [21] was 6.62%. For the same compound, the viability, T/C [22] was 6.95%, the viability, T/C [23] was 7.18% and the viability, T/C [24] was 5.36%.
In the case of CCN1CCN(Cc2ccc(Nc3ncc(F)c(-c4cc(F)c5nc(C)n(C(C)C)c5c4)n3)nc2)CC1 + Cc1nc(NC(=O)N2CCCC2C(N)=O)sc1-c1ccnc(C(C)(C)C(F)(F)F)c1, the IC50 (second compound 0.0316 µM) is reported as 226 nM, the IC50 (second compound 0.1 µM) is reported as 26.3 nM and the IC50 (second compound 0.316 µM) is reported as 4.15 nM. The IC50 (second compound 1 µM) was less than 3.16 nM, the IC50 (second compound 3.16 µM) was less than 3.16 nM and the IC50 (second compound 10 µM) was less than 3.16 nM. The viability, T/C [1] was 75.7%, the viability, T/C [2] was 64.7% and the viability, T/C [3] was 64.2%. It also gave a viability, T/C [4] of 53.8%, a viability, T/C (second compound 0.0316 µM, first compound 0.316 µM) of 49.9% and a viability, T/C (second compound 0.0316 µM, first compound 1 µM) of 39.6%. It also gave a viability, T/C [5] of 59.7%, a viability, T/C [6] of 56.3% and a viability, T/C [7] of 46.4%. It also gave a viability, T/C [8] of 44.4%, a viability, T/C (second compound 0.1 µM, first compound 0.316 µM) of 44.3% and a viability, T/C (second compound 0.1 µM, first compound 1 µM) of 36.3%. For the same compound, the viability, T/C [9] was 53.3%, the viability, T/C [10] was 39.7% and the viability, T/C [11] was 37%. It also gave a viability, T/C [12] of 31.4%, a viability, T/C (second compound 0.316 µM, first compound 0.316 µM) of 26.6% and a viability, T/C (second compound 0.316 µM, first compound 1 µM) of 28.5%. It also gave a viability, T/C [13] of 29.1%, a viability, T/C [14] of 25.5% and a viability, T/C [15] of 24.1%. For the same compound, the viability, T/C [16] was 17.1%, the viability, T/C (second compound 1 µM, first compound 0.316 µM) was 21.4% and the viability, T/C (second compound 1 µM, first compound 1 µM) was 19.3%. The viability, T/C [17] was 12.3%, the viability, T/C [18] was 13.7% and the viability, T/C [19] was 11.8%. It also gave a viability, T/C [20] of 10.5%, a viability, T/C (second compound 3.16 µM, first compound 0.316 µM) of 14.6% and a viability, T/C (second compound 3.16 µM, first compound 1 µM) of 10.5%. The viability, T/C [21] was 7.72%, the viability, T/C [22] was 5.77% and the viability, T/C [23] was 5.3%. For the same compound, the viability, T/C [24] was 4.95%, the viability, T/C (second compound 10 µM, first compound 0.316 µM) was 5.02% and the viability, T/C (second compound 10 µM, first compound 1 µM) was 5.41%.
